Legend:
[1] = system: platelet aggregation in platelet-rich plasma (PRP); experiment: Platelet aggregation in human platelet-rich plasma (aggregometer, light transmittance); type: cell-based; details: for ability to counteract platelet aggregation by arachidonic acid: aggregation induced by arachidonic acid, human PRP
Method: Platelet aggregation experiments were performed on platelet-rich plasma (PRP) prepared from blood of healthy human subjects, who had not taken cyclooxygenase inhibitors (acetylsalicylic acid, non-steroidal anti-inflammatory agents) for at least two weeks. Blood was collected in test tubes containing a 3.2% sodium citrate solution ( 1/10 of blood volume) and immediately centrifuged at 150×g for 15 minutes. Samples of PRP were further centrifuged at 12,000×g in order to obtain platelet-poor plasma (PPP), used for calibration of light transmittance of the double-channel aggregometer, fixing the transmittance of PRP as 10% and that of PPP as 90%. Platelet aggregation in PRP of each subject was tested measuring the percent increase in transmittance under the addition of increasing amounts of sodium arachidonate, in concentrations in the range from 300 to 900 μM, or of collagen, in concentrations in the range from 0.5 to 2.5 μg/ml, or of U-46619, in concentrations in the range from 0.2 to 1.6 μM. (U-46619, i.e., 9,11-dideoxy-11α, 9α-epoxymethano-prostaglandin F2α is an active synthetic analogue of thromboxane A2 and it is chemically stable, at difference from the natural compound; it is therefore used as a substitute in pharmacological experiments). In this way the threshold concentration, i.e., the concentration inducing a submaximal irreversible aggregation was assessed in each subject with the three agents.
PRP samples of subjects not responding to the maximal concentrations were discarded.

thromboxane synthesis = experiment: Thromboxane synthesis in clotting blood (serum TxB2 by radioimmunoassay); type: cell-based; details: human blood clotted 60 min at 37° C.
Method: Test compounds were added in a series of concentrations ranging from 10^−7 M to 10^−3 M to samples of blood from healthy human subjects, who had not taken cyclooxygenase inhibitors (acetylsalicylic acid, non-steroidal anti-inflammatory agents) for at least two weeks. The blood samples were allowed to clot for 60 min in a bath at 37° C., and then centrifuged at 2500×g for 10 min. The serum was separated and kept frozen at −20° C. for the determination of TxB2 by radio immunoassay. TxB2 is the stable metabolite into which thromboxane A2 is rapidly converted.

[2] = system: transcellular synthesis of prostacyclin; experiment: Transcellular prostacyclin synthesis: human PRP layered on acetylsalicylic acid-pretreated cultured bovine endothelial cells (6-keto-prostaglandin F1α by radioimmunoassay); type: cell-based
Method: The effects on the transcellular synthesis of prostacyclin from endoperoxides generated in platelets were assessed by layering platelet rich plasma (PRP), obtained from healthy human subjects as described above, on cultured bovine endothelial cells (5×10^5 cells/well). The endothelial cells were pretreated with acetylsalicylic acid (10^−4 M) in order to inhibit the direct synthesis of endoperoxides, and washed twice with Dulbecco's phosphate buffered saline. Then to individual samples of endothelial cells there were added at 37° C. while shaking on an oscillating platform, 0.5 ml of PRP samples pretreated with the test compounds in various concentrations, ranging from […] to 10^−3 M. Collagen (0.5 μg/ml) was then added to each sample. After 2 minutes of contact at 37° C., PRP was removed and centrifuged at 12,000×g, and the supernatant was frozen and kept at −20° C. for the determination of 6-keto-prostaglandin F1α by radioimmunoassay.
6-Keto-prostaglandin F1α is a stable metabolite into which prostacyclin is rapidly converted.

rabbit aortae = experiment: Vascular relaxation of contracted aortic rings in vitro; details: at a concentration of 10^−4 M; contraction induced with norepinephrine (10^−6 M)
Method: The ability to induce vascular relaxation by acting as a donor of nitric oxide was tested in vitro on rabbit aortae. Rings of aortae were suspended in a Krebs-Henseleit solution at 37° C., submitted to a 1 g tension and connected to a force transducer.

Q: For `O=C(O)/C=C/c1ccc(Cn2ccnc2)cc1` [ozagrel, (E)-3-[4-(1H-imidazol-1-ylmethyl)-phenyl]-2-propenoic acid], which “ability to counteract platelet aggregation by arachidonic acid” value [1] is on record?
A: shared

Q: And the “effect on thromboxane synthesis” value (thromboxane synthesis)?
A: at difference from acetylsalicylic acid and ozagrel

Q: `COc1ccc(C(=O)N[C@H]2CC[C@H](O[N+](=O)[O-])CC2)cc1C(=O)NCc1cccnc1` [4-Methoxy-N^1-(4-trans-nitrooxycyclohexyl)-N^3-(3-pyridinylmethyl)-1,3-benzenedicarboxamide] was tested. Which “level of prostacyclin metabolite relative to the amount produced in basal conditions by endothelial cells not submitted to cyclooxygenase inhibition” value ([2]; acetylsalicylic acid-treated endothelial cells, collagen 0.5 μg/ml) did it give?
A: 8-16 times

Q: What about the “production of the prostacyclin metabolite (6-keto-prostaglandin F1α), level reached” value ([2]; acetylsalicylic acid-treated endothelial cells, collagen 0.5 μg/ml, 2 minutes at 37° C.) of the same compound?
A: 800-1600 μpg/ml

Q: And the “concentration from which production of the prostacyclin metabolite was markedly increased” value ([2]; collagen 0.5 μg/ml, 2 minutes at 37° C., 6-keto-prostaglandin F1α)?
A: ≥ 10^−6 M

Q: And the “relaxation of the aortic ring” value (rabbit aortae)?
A: complete relaxation

Q: Which “ability to counteract platelet aggregation by arachidonic acid” value [1] does the source give for `CC(=O)Oc1ccccc1C(=O)O` [acetylsalicylic acid] here?
A: shared

Q: What about the “effect on thromboxane synthesis” value (thromboxane synthesis) of the same compound?
A: at difference from acetylsalicylic acid and ozagrel

Q: What does the source list for `O=C(O)Cc1ccc(CCNS(=O)(=O)c2ccc(Cl)cc2)cc1` [daltroban, p-[2-(p-chlorobenzenesulfonamido)ethyl]phenylacetic]?
A: ability to counteract the aggregation by U-46619 ([1]; aggregation induced by U-46619, human PRP): shared only by daltroban; ability to counteract platelet aggregation by arachidonic acid [1]: shared; stimulation of the synthesis of prostacyclin ([2]; PRP on acetylsalicylic acid-treated bovine endothelial cells): did not stimulate the synthesis of prostacyclin
